In one data set the test system is Rattus norvegicus. The experiment in a line: Amount of urine output was measured in rat at a dose of 10 mg/kg administered orally. It counts as ADME, organism-based. Details: dose 10 mg/kg, route oral. The note with it: in vivo, po.
The target of the next data set is Vasopressin V2 receptor (Homo sapiens, UniProt P30518). The experiment in a line: In vitro inhibition of [3H]AVP binding to human V2 receptor from murine fibroblast cell line (LV2). It counts as cell-based.
Vasopressin V2 receptor, sequence (P30518 whole entry): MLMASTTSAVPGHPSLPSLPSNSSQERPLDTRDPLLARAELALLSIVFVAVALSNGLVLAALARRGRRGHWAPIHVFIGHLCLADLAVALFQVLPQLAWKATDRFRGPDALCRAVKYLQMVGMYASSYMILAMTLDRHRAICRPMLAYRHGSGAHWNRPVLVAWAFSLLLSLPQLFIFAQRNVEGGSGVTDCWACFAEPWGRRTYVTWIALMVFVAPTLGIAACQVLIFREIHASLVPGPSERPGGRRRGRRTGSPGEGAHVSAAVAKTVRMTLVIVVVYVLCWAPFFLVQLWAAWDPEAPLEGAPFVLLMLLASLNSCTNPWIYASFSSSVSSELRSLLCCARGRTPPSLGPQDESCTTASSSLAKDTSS
The target in data set [1] is T1, Vasopressin V1a receptor (Homo sapiens, UniProt P37288). The data set can be described thus: In vitro inhibition of [3H]- AVP binding to V1a receptor from human platelet membrane.
Target sequence in this assay (P37288 whole entry): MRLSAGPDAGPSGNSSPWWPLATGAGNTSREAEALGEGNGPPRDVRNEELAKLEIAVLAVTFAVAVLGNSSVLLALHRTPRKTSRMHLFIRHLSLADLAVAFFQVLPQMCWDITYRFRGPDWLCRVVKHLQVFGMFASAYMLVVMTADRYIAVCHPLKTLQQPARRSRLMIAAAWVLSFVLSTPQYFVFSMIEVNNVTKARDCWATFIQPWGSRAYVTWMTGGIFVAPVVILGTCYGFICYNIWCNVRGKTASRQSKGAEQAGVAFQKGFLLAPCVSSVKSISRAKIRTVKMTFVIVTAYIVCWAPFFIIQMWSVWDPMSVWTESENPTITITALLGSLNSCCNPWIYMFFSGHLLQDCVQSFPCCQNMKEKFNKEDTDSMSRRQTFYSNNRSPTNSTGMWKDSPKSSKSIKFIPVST
Data set [2] concerns the target T1, Vasopressin V1a receptor. The data set can be described thus: In vitro inhibition of [3H]- AVP binding to V1a receptor from human platelet membrane at 10 uM.
Target sequence in this assay (P37288 whole entry, looked up): as the sequence (P37288 whole entry) above

For `Cc1ccc(F)cc1C(=O)Nc1ccc(C(=O)N2Cc3cccn3Cc3ccccc32)c(Cl)c1` [LIXIVAPTAN], the Urine volume in the data set with Rattus norvegicus turned out to be 35 ml 4hr-1.
In general, IC50 refers to the point on the concentration scale where inhibition reaches its midpoint. For `Cc1ccccc1C(=O)Nc1ccc(C(=O)N2Cc3sccc3Cc3ccccc32)cc1`, the figures for the IC50 at Vasopressin V2 receptor and at Vasopressin V1a receptor [1] were 0.7 nM and 8.5 nM, respectively. Also, the Urine volume with Rattus norvegicus is 13.5 ml 4hr-1.
On to `O=C(Nc1ccc(C(=O)N2Cc3sccc3Cc3ccccc32)cc1)c1ccc(Cl)cc1Cl`, for which the IC50 at Vasopressin V2 receptor came to 19 nM; at Vasopressin V1a receptor [1], 43 nM. The same compound had a Urine volume in the data set on Rattus norvegicus of 5.8 ml 4hr-1.
As a reminder, the inhibition is the relative decrease from the control value, in per cent. A lower inhibition goes with a response near the control. At Vasopressin V2 receptor, `Cc1ccc(F)cc1C(=O)Nc1ccc(C(=O)N2Cc3sccc3Cc3ccccc32)c(Cl)c1` gave a 50% inhibitory concentration (IC50) of 6.8 nM. In addition, the Urine volume with Rattus norvegicus is reported as 30 ml 4hr-1. This compound also gave an inhibition at Vasopressin V1a receptor [2] of 59%.
Turning to `Cc1ccc(F)cc1C(=O)Nc1ccc(C(=O)N2Cc3sccc3Cc3ccccc32)cn1`, in the data set with Rattus norvegicus, the Urine volume stood at 16.5 ml 4hr-1.
Still for that read-out and setting: in the case of `Cc1ccccc1C(=O)Nc1ccc(C(=O)N2Cc3ccsc3Cc3ccccc32)cc1` it was 4.5 ml 4hr-1.

The values are drawn from ChEMBL document CHEMBL1131757, “4,10-dihydro-5H-thieno[3,2-c][1]benzazepine derivatives and 9,10-dihydro-4H-thieno[2,3-c][1]benzazepine derivatives as orally active arginine vasopressin receptor antagonists” (Bioorg Med Chem Lett, 1999).
